Laboratory results as given in patent US8822690B2, “High transmissional yellow dye for LCD and synthetic method thereof” (LG Display Co., Ltd., priority 2012, dated 2014).
Where two headings read alike, the source gives them in different places.

Tests used:
Assay type in all cases: physicochemical
[1] = qualitative solubility assessment of the synthesized quinophthalone series dye; details: organic solvent or mixture
From the text: In below Table 1, there were qualitative solubility assessment results of the synthesized quinophthalone series dye. […] This means that new design to improve solubility is successful. It was shown that QP3 improving intermolecular steric hindrance by bulk-sized alkyl residue and QP4 increasing affinity to the process solvent, PGMEA, by introducing carboxylate functional group increased its solubility successfully than QP1.

[2] = solubility to PGMEA in primary color filter application property assessment; details: for 1% solubility of dye to PGMEA: 1% in PGMEA
[3] = thermal resistance by Thermo Gravimetric Analyzer (TGA); details: high temperature zone over 300° C.
Method: Through Thermo Gravimetric Analyzer (TGA), Thermogravimetric Analyzer 2050 (TA instruments), thermal resistance of the synthesized dye was measured (FIG. 3). For the thermal resistance test, change of mass reduction rate (w %) was measured by passing through isothermal section at 220° C. for 30 min, raising the temperature to 30° C.˜400° C. in 10° C./min. In order to apply it as a dye material for LCD color filter, the mass reduction in isothermal zone must be less than 5%. […] In case of QP3 and QP4, it was analyzed that functional groups introduced to improve the solubility gave somewhat reciprocal effects to the thermal resistance of dye. […] It seems that the weight loss is caused by effects of solvents or impurities rather than thermal resistance of dye itself.

[4] = spectroscopic change by temperature and number of PB (Δ Eab)
Method: Color simulation was performed according to the condition described in FIG. 15.

[5] = UV-vis absorption spectroscopic analysis of dye; details: slope of absorption reduction just prior to 500 nm, absorption after 500 nm
From the text: As QP3 and QP4 increased the molar extinction coefficient further in addition to somewhat bathochromic-shift of λmax, they show very strong and sharp absorption peaks prior to 500 nm. This is very ideal absorption peak for being used as a yellow compensation dye to correct the major green dye.

[6] = process solvent PGMEA, read-out: solubility in PGMEA
[7] = solvent CH2Cl2, read-out: solubility in CH2Cl2
[8] = 180° C., first value of PB sequence
[9] = 180° C., second value of PB sequence
[10] = 180° C., third value of PB sequence
[11] = 200° C., first value of PB sequence
[12] = 200° C., second value of PB sequence
[13] = 200° C., third value of PB sequence
[14] = 230° C., first value of PB sequence
[15] = 230° C., second value of PB sequence
[16] = 230° C., third value of PB sequence

Compound | solubility [1, 6] [mg/mL] | solubility [1, 7] [mg/mL] | 1% solubility of dye to PGMEA [2] | solubility to PGMEA [2] | thermal resistance in high temperature zone [3] | spectroscopic change by # of PB (Δ Eab) [4, 8] | spectroscopic change by # of PB (Δ Eab) [4, 9] | spectroscopic change by # of PB (Δ Eab) [4, 10] | spectroscopic change by # of PB (Δ Eab) [4, 11] | spectroscopic change by # of PB (Δ Eab) [4, 12] | spectroscopic change by # of PB (Δ Eab) [4, 13] | spectroscopic change by # of PB (Δ Eab) [4, 14] | spectroscopic change by # of PB (Δ Eab) [4, 15] | spectroscopic change by # of PB (Δ Eab) [4, 16] | color property (UV-vis absorption peak) [5]
O=C1c2ccccc2C(=O)C1c1ccc2cccc(N3C(=O)c4ccccc4C3=O)c2n1 [QP1] | > 5 | > 5 |  |  |  |  |  |  |  |  |  |  |  |  | 
O=C1c2cccc3cccc(c23)C(=O)N1c1cccc2c1NC(=c1c(=O)c3cccc4cccc(c1=O)c43)C=C2 [QP2] | > 0.5 | > 0.5 |  |  |  |  |  |  |  |  |  |  |  |  | 
CC(C)(C)c1ccc2c(c1)C(=O)/C(=C1\C=Cc3cccc(N4C(=O)c5ccc(C(C)(C)C)cc5C4=O)c3N1)C2=O [QP3] | > 50 | > 50 | satisfactory level | 5-10% | the best thermal resistance property | 0.36 | 1.84 | 1.98 | 0.56 | 2.74 | 2.77 | 2.94 | 9.3 | 13.4 | the most excellent color property
CCOC(=O)c1ccc2c(c1)C(=O)/C(=C1\C=Cc3cccc(N4C(=O)c5ccc(C(=O)OCC)cc5C4=O)c3N1)C2=O [QP4] | > 50 | > 50 | satisfactory level | 5-7% |  | 1.11 | 1.42 | 1.59 | 1.62 | 2.04 | 2.37 | 3.51 | 6.3 | 9.36 | 
